# According to publication PMC10552397 (Cell Communication and Signaling : CCS, 2023):
# Read-outs that look alike come from different tables or passages of the source.
# Tests used:
# Type in all cases: cell-based
# [1] = tested on: HeLa wt cells; experiment: MTT cell viability assay, HeLa wt; conditions: Homo sapiens
# Description: Cell viability was measured using the MTT (3-(4,5-dimethylthiazol-2-yl)-2,5-diphenyltetrazolium bromide) assay. HeLa cells were seeded in 96-well plates with a density of 5*10^3 cells/well. […] After the incubation time, 20 µL of a 5 mg/mL MTT stock solution (ROTH, Karlsruhe, Germany, #4022.3) were added to the cells and they were incubated at 37 °C and 5% CO2 in a humidified atmosphere for 30 min. Upon removal of the MTT-containing medium 100 µL DMSO per well were added for extraction of the formazan. Absorbance was measured at 570 nm and 650 nm (reference) with a microplate reader (SynergyMx, BioTek, Winooski, VT, USA). After subtraction of the reference value, the mean of the absorbance of the solvent control was set as 100% and the relative viability was calculated for each sample.
# All IC50 values were calculated using GraphPad Prism 7.01.
# [2] = tested on: HeLa GRASP55 KO cells; experiment: Transmission electron microscopy of Golgi apparatus, HeLa GRASP55 KO; conditions: 100 nM, 24 h, HeLa GRASP55 KO (also wt)
# Description: (§1) HeLa wt and HeLa GRASP55 KO cells were seeded into 10 cm dishes. […] After treatment, cells were washed with Dulbecco´s phosphate-buffered saline (DPBS, Thermo Fisher Scientific, Waltham, MA, USA, #14,190,250) and then fixed using 2.5% glutaraldehyde and 4% paraformaldehyde in 0.1 M sodium cacodylate, pH 7.4 overnight at 4 °C. Then, cells were harvested with a cell scraper and centrifuged at 4,000 × g for 5 min. Cell pellets were washed twice with 0.1 M sodium cacodylate buffer, pH 7.2, then heated to 40 °C and embedded into 3% low melting agarose. The agarose was dissolved at 40 °C in a water bath and after aspiration of the supernatant a volume of approximately 10 µL was left, which was resuspended in agarose. After centrifugation at approximately 4,000 x g for 2 min, the samples were covered with 1% OsO4 in 0.1 M sodium cacodylate buffer for 60 min at RT. After washing two times with sodium cacodylate buffer for 10 min and twice with 70% EtOH for 15 min at RT, block contrast was applied using 1% uranyl acetate/1% phosphorotungstic acid in 70% EtOH (freshly prepared and filtered) for 1 h at RT. The samples were dehydrated in a graded ethanol series (90% EtOH, 96% EtOH, 100% EtOH) and embedded in SPURR epoxy resin (Serva, Heidelberg, Germany, #21,050). After polymerization at 70 °C for 24 h, 70 nm ultrathin sections were cut using an Ultracut EM UC7 (Leica, Wetzlar, Germany). […]
# [3] = biological target: T1, cathepsin B (Homo sapiens, UniProt P07858); experiment: Cathepsin B activity assay in treated HeLa cells; conditions: 24 h, concentration-dependent, HeLa wt
# T1 construct: host or cells: HeLa wt cells
# Text: Antibodies against β-actin (Sigma-Aldrich, St. Louis, MO, USA, #A5316, clone AC-74, 1:5000), B4GALT1 (Sigma-Aldrich, St. Louis, MO, USA, #HPA010807, 1:200), GAPDH (abcam, Cambridge, UK, #ab8245, 1:5000), GRASP55 (Proteintech, Chicago, IL, USA, #10,598–1-AP, 1:200 for IF and 1:2000 for WB), LAMP1 (Sigma-Aldrich, St. Louis, MO, USA, #L1418, 1:200), LC3B (MBL, Woburn, MA, USA, #M-152–3, 1:200 for IF and Cell Signalling Technology, Danvers, MA, USA, #2775, 1:1000 for WB), SQSTM1 (PROGEN, Heidelberg, Germany, #GP62-C, 1:1000) and TGN46 (Bio-Rad, Hercules, CA, USA, #AHP500GT, 1:200) were used. For WB, IRDye 800- or IRDye 680-conjugated secondary antibodies were purchased from LI-COR Biosciences (Lincoln, NE, USA, #926–68,077, #926–32,211 and #926–32,210). […] The cathepsin activity of treated HeLa cells was quantified using the fluorimetric Cathepsin B Activity Assay Kit (abcam, Cambridge, UK, #ab65300) according to the manufacturer´s instructions and measured with a microplate reader (SynergyMx, BioTek, Winooski, VT, USA).
# [4] = tested on: HeLa wt cells; experiment: Transmission electron microscopy of Golgi apparatus, HeLa wt; conditions: 24 h
# Description: as §1
smiles,measurement,setting,value
"CCCCCC1=C/C(=C/c2[nH]c(-c3ccc[nH]3)cc2OC)N=C1C [Prodigiosin, prodigiosin]",IC50,"[1]; 24 h, Fig. 1B, read-out: IC50 (24 h)",685 nM
same,IC50,"[1]; 24 h, Fig. 5C (independent of Fig. 1B), read-out: IC50 value wt",547 nM
same,IC50,"[1]; 72 h, Fig. 1B, read-out: IC50 (72 h)",77 nM
same,IC50,"[1]; 72 h, Fig. 5C (independent of Fig. 1B), read-out: IC50 value wt",63.9 nM
same,Golgi apparatus morphology (TEM),[2],Severe structural changes of the Golgi apparatus
same,cathepsin B activity,[3],significantly reduced
same,Golgi apparatus morphology (TEM),[4]; 10 nM,cisternae number and length decreased and cisternae were more voluminous
same,Golgi apparatus morphology (TEM),[4]; 100 nM,distinct swelling of the Golgi apparatus
